System: Japanese medaka (Oryzias latipes)
Assay: Fish short-term reproduction assay (FSTRA, OECD TG229), 21-day flow-through exposure
Conditions: for Fertility rate (%) / Mortality (%) Female / Mortality (%) Male / Number of fertilized eggs / Number of total eggs / SSC Female / SSC Male / VTG (ng/mg of liver) Female / VTG (ng/mg of liver) Male: 21 days; for GSI Female / GSI Male / HSI Female / HSI Male / Length Female / Length Male / Weight Female / Weight Male: at completion of exposure; for effect on fecundity (number of total eggs), in words: within the test concentrations
Procedure, shortened: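 Japanese medaka (NIES-R strain, 16 ± 2 weeks old) were exposed in flow-through tanks for 3 weeks, three males and three females per tank, four replicate tanks per group, with a dilution water control. Concentrations were spaced by a factor of 2–5. Eggs were collected daily and counted as fertilized or unfertilized.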

[1] = hepatic VTG, 21-day exposure, measured conc.

CC(=O)N1CCN(c2ccc(OCC3COC(Cn4ccnc4)(c4ccc(Cl)cc4Cl)O3)cc2)CC1 (centres unmarked) [KCZ, Ketoconazole]
effect on male SSC, in words (21-day exposure): statistical significance | LOEC for decrease of VTG in females [1]: 233 µg/L | Fertility rate (%) (measured conc. 105 μg/L): 91% | Mortality (%) Female (measured conc. 105 μg/L): 0% | Mortality (%) Male (measured conc. 105 μg/L): 0% | Number of fertilized eggs (measured conc. 105 μg/L): 22 | Number of total eggs (measured conc. 105 μg/L): 24 ± 1.1 /female/day | SSC Female (measured conc. 105 μg/L): 0 ± 0 | SSC Male (measured conc. 105 μg/L): 82 ± 10 | VTG (ng/mg of liver) Female (measured conc. 105 μg/L): 618 ± 81 ng/mg of liver | VTG (ng/mg of liver) Male (measured conc. 105 μg/L): 1.4 ± 0.3 ng/mg of liver | GSI Female (measured conc. 105 μg/L): 11.6% | GSI Male (measured conc. 105 μg/L): 1.08% | HSI Female (measured conc. 105 μg/L): 4.2% | HSI Male (measured conc. 105 μg/L): 1.9% | Length Female (measured conc. 105 μg/L): 33.2 mm | Length Male (measured conc. 105 μg/L): 32.7 mm | Weight Female (measured conc. 105 μg/L): 387 mg | Weight Male (measured conc. 105 μg/L): 381 mg | Fertility rate (%) (measured conc. 233 μg/L): 89% | Mortality (%) Female (measured conc. 233 μg/L): 0% | Mortality (%) Male (measured conc. 233 μg/L): 0% | Number of fertilized eggs (measured conc. 233 μg/L): 18 | Number of total eggs (measured conc. 233 μg/L): 20 ± 1.6 /female/day | SSC Female (measured conc. 233 μg/L): 0 ± 0 | SSC Male (measured conc. 233 μg/L): 116 ± 25 | VTG (ng/mg of liver) Female (measured conc. 233 μg/L): 542 ± 353 ng/mg of liver | VTG (ng/mg of liver) Male (measured conc. 233 μg/L): 1.3 ± 0.1 ng/mg of liver | GSI Female (measured conc. 233 μg/L): 12.0% | GSI Male (measured conc. 233 μg/L): 1.26% | HSI Female (measured conc. 233 μg/L): 8.8% | HSI Male (measured conc. 233 μg/L): 3.8% | Length Female (measured conc. 233 μg/L): 33.3 mm | Length Male (measured conc. 233 μg/L): 33.3 mm | Weight Female (measured conc. 233 μg/L): 419 mg | Weight Male (measured conc. 233 μg/L): 416 mg | Fertility rate (%) (measured conc. 405 μg/L): 81% | Mortality (%) Female (measured conc. 405 μg/L): 8% | Mortality (%) Male (measured conc. 405 μg/L): 0% | Number of fertilized eggs (measured conc. 405 μg/L): 9.0 | Number of total eggs (measured conc. 405 μg/L): 11 ± 4.4 /female/day | SSC Female (measured conc. 405 μg/L): 0 ± 0 | SSC Male (measured conc. 405 μg/L): 91 ± 13 | VTG (ng/mg of liver) Female (measured conc. 405 μg/L): 190 ± 123 ng/mg of liver | VTG (ng/mg of liver) Male (measured conc. 405 μg/L): 1.1 ± 0.1 ng/mg of liver | GSI Female (measured conc. 405 μg/L): 13.6% | GSI Male (measured conc. 405 μg/L): 0.98% | HSI Female (measured conc. 405 μg/L): 12.1% | HSI Male (measured conc. 405 μg/L): 3.5% | Length Female (measured conc. 405 μg/L): 32.6 mm | Length Male (measured conc. 405 μg/L): 32.4 mm | Weight Female (measured conc. 405 μg/L): 410 mg | Weight Male (measured conc. 405 μg/L): 404 mg | Fertility rate (%) (measured conc. 795 μg/L): 76% | Mortality (%) Female (measured conc. 795 μg/L): 42% | Mortality (%) Male (measured conc. 795 μg/L): 58% | Number of fertilized eggs (measured conc. 795 μg/L): 3.5 | Number of total eggs (measured conc. 795 μg/L): 4.7 ± 0.9 /female/day | SSC Female (measured conc. 795 μg/L): 0 ± 0 | SSC Male (measured conc. 795 μg/L): 80 ± 22 | VTG (ng/mg of liver) Female (measured conc. 795 μg/L): 56 ± 95 ng/mg of liver | VTG (ng/mg of liver) Male (measured conc. 795 μg/L): 1.1 ± 0.1 ng/mg of liver | GSI Female (measured conc. 795 μg/L): 11.0% | GSI Male (measured conc. 795 μg/L): 1.35% | HSI Female (measured conc. 795 μg/L): 11.8% | HSI Male (measured conc. 795 μg/L): 5.1% | Length Female (measured conc. 795 μg/L): 31.7 mm | Length Male (measured conc. 795 μg/L): 30.2 mm | Weight Female (measured conc. 795 μg/L): 376 mg | Weight Male (measured conc. 795 μg/L): 282 mg | effect on fecundity (number of total eggs), in words (21-day exposure): significant difference from the control

Cc1cc(O)ccc1Cl [CMP, 4‐Chloro‐3‐methylphenol]
LOEC on VTG induction in male (in molarity) (hepatic VTG, 21-day exposure): 7.4 µM | LOEC (in molarity) for male VTG: times higher than that of E2 (in vivo): 110,000 times | Fertility rate (%) (measured conc. 108 μg/L): 94% | Mortality (%) Female (measured conc. 108 μg/L): 0% | Mortality (%) Male (measured conc. 108 μg/L): 0% | Number of fertilized eggs (measured conc. 108 μg/L): 24 | Number of total eggs (measured conc. 108 μg/L): 26 ± 3.2 /female/day | SSC Female (measured conc. 108 μg/L): 0 ± 0 | VTG (ng/mg of liver) Female (measured conc. 108 μg/L): 2,610 ± 265 ng/mg of liver | VTG (ng/mg of liver) Male (measured conc. 108 μg/L): 2.9 ± 4.4 ng/mg of liver | GSI Female (measured conc. 108 μg/L): 9.9% | GSI Male (measured conc. 108 μg/L): 0.80% | HSI Female (measured conc. 108 μg/L): 3.9% | HSI Male (measured conc. 108 μg/L): 1.9% | Length Female (measured conc. 108 μg/L): 36.5 mm | Length Male (measured conc. 108 μg/L): 36.0 mm | Weight Female (measured conc. 108 μg/L): 565 mg | Weight Male (measured conc. 108 μg/L): 498 mg | Fertility rate (%) (measured conc. 350 μg/L): 94% | Mortality (%) Female (measured conc. 350 μg/L): 0% | Mortality (%) Male (measured conc. 350 μg/L): 0% | Number of fertilized eggs (measured conc. 350 μg/L): 24 | Number of total eggs (measured conc. 350 μg/L): 25 ± 3.9 /female/day | SSC Female (measured conc. 350 μg/L): 0 ± 0 | VTG (ng/mg of liver) Female (measured conc. 350 μg/L): 2,650 ± 214 ng/mg of liver | VTG (ng/mg of liver) Male (measured conc. 350 μg/L): 9.9 ± 18.3 ng/mg of liver | GSI Female (measured conc. 350 μg/L): 9.8% | GSI Male (measured conc. 350 μg/L): 0.68% | HSI Female (measured conc. 350 μg/L): 4.4% | HSI Male (measured conc. 350 μg/L): 2.4% | Length Female (measured conc. 350 μg/L): 35.4 mm | Length Male (measured conc. 350 μg/L): 36.4 mm | Weight Female (measured conc. 350 μg/L): 509 mg | Weight Male (measured conc. 350 μg/L): 529 mg | Fertility rate (%) (measured conc. 1,060 μg/L): 93% | Mortality (%) Female (measured conc. 1,060 μg/L): 8.3% | Mortality (%) Male (measured conc. 1,060 μg/L): 0% | Number of fertilized eggs (measured conc. 1,060 μg/L): 23 | Number of total eggs (measured conc. 1,060 μg/L): 25 ± 2.3 /female/day | SSC Female (measured conc. 1,060 μg/L): 0 ± 0 | VTG (ng/mg of liver) Female (measured conc. 1,060 μg/L): 3,020 ± 702 ng/mg of liver | VTG (ng/mg of liver) Male (measured conc. 1,060 μg/L): 33.8 ± 37.0 ng/mg of liver | GSI Female (measured conc. 1,060 μg/L): 9.9% | GSI Male (measured conc. 1,060 μg/L): 0.74% | HSI Female (measured conc. 1,060 μg/L): 3.9% | HSI Male (measured conc. 1,060 μg/L): 2.0% | Length Female (measured conc. 1,060 μg/L): 35.2 mm | Length Male (measured conc. 1,060 μg/L): 36.3 mm | Weight Female (measured conc. 1,060 μg/L): 509 mg | Weight Male (measured conc. 1,060 μg/L): 505 mg | effect on fecundity (number of total eggs), in words (21-day exposure): No effect

CCC(C)(C)c1ccc(O)cc1 [PTH, 4‐tert‐Pentylphenol]
LOEC on VTG induction in male (in molarity) (hepatic VTG, 21-day exposure): 0.59 µM | LOEC for VTG induction in males [1]: 96.5 µg/L | effect on male GSI, in words (highest concentration, 21-day exposure): significant decreasing | LOEC (in molarity) for male VTG: times higher than that of E2 (in vivo): 14,000 times | LOEC on male VTG induction: times smaller than the LOEC for CMP (in vivo): > 8 times | Fertility rate (%) (measured conc. 96.5 μg/L): 92% | Mortality (%) Female (measured conc. 96.5 μg/L): 8.3% | Mortality (%) Male (measured conc. 96.5 μg/L): 0% | Number of fertilized eggs (measured conc. 96.5 μg/L): 18 | Number of total eggs (measured conc. 96.5 μg/L): 19 ± 6.6 /female/day | SSC Female (measured conc. 96.5 μg/L): 0 ± 0 | SSC Male (measured conc. 96.5 μg/L): 98 ± 8.0 | VTG (ng/mg of liver) Female (measured conc. 96.5 μg/L): 1,680 ± 240 ng/mg of liver | VTG (ng/mg of liver) Male (measured conc. 96.5 μg/L): 83.2 ± 106 ng/mg of liver | GSI Female (measured conc. 96.5 μg/L): 9.5% | GSI Male (measured conc. 96.5 μg/L): 0.74% | HSI Female (measured conc. 96.5 μg/L): 4.3% | HSI Male (measured conc. 96.5 μg/L): 2.5% | Length Female (measured conc. 96.5 μg/L): 34.8 mm | Length Male (measured conc. 96.5 μg/L): 35.8 mm | Weight Female (measured conc. 96.5 μg/L): 470 mg | Weight Male (measured conc. 96.5 μg/L): 532 mg | Fertility rate (%) (measured conc. 342 μg/L): 93% | Mortality (%) Female (measured conc. 342 μg/L): 8.3% | Mortality (%) Male (measured conc. 342 μg/L): 0% | Number of fertilized eggs (measured conc. 342 μg/L): 17 | Number of total eggs (measured conc. 342 μg/L): 18 ± 3.6 /female/day | SSC Female (measured conc. 342 μg/L): 0 ± 0 | SSC Male (measured conc. 342 μg/L): 94 ± 14 | VTG (ng/mg of liver) Female (measured conc. 342 μg/L): 2,820 ± 1,540 ng/mg of liver | VTG (ng/mg of liver) Male (measured conc. 342 μg/L): 621 ± 265 ng/mg of liver | GSI Female (measured conc. 342 μg/L): 8.1% | GSI Male (measured conc. 342 μg/L): 0.67% | HSI Female (measured conc. 342 μg/L): 4.5% | HSI Male (measured conc. 342 μg/L): 3.1% | Length Female (measured conc. 342 μg/L): 34.5 mm | Length Male (measured conc. 342 μg/L): 34.7 mm | Weight Female (measured conc. 342 μg/L): 476 mg | Weight Male (measured conc. 342 μg/L): 516 mg | Fertility rate (%) (measured conc. 1,100 μg/L): 74% | Mortality (%) Female (measured conc. 1,100 μg/L): 17% | Mortality (%) Male (measured conc. 1,100 μg/L): 8.3% | Number of fertilized eggs (measured conc. 1,100 μg/L): 10 | Number of total eggs (measured conc. 1,100 μg/L): 13 ± 3.6 /female/day | SSC Female (measured conc. 1,100 μg/L): 0 ± 0 | SSC Male (measured conc. 1,100 μg/L): 95 ± 5.0 | VTG (ng/mg of liver) Female (measured conc. 1,100 μg/L): 5,770 ± 2,880 ng/mg of liver | VTG (ng/mg of liver) Male (measured conc. 1,100 μg/L): 9,740 ± 800 ng/mg of liver | GSI Female (measured conc. 1,100 μg/L): 8.4% | GSI Male (measured conc. 1,100 μg/L): 0.51% | HSI Female (measured conc. 1,100 μg/L): 4.7% | HSI Male (measured conc. 1,100 μg/L): 4.1% | Length Female (measured conc. 1,100 μg/L): 33.3 mm | Length Male (measured conc. 1,100 μg/L): 34.5 mm | Weight Female (measured conc. 1,100 μg/L): 438 mg | Weight Male (measured conc. 1,100 μg/L): 498 mg | effect on fecundity (number of total eggs), in words (21-day exposure): significant decrease

From PMC8359193, “Summary of reference chemicals evaluated by the fish short‐term reproduction assay, OECD TG229, using Japanese Medaka, Oryzias latipes” (Journal of Applied Toxicology, 2021)
